Test results published in ChEMBL document CHEMBL1138173, “Synthesis and biological evaluation of photoaffinity labeled fusidic acid analogues” (2006).
Values after ≈ are worked out from the molar mass of the structure shown.

Tests used:
Format in all cases: functional
Staphylococcus aureus [1] = assay: Antibacterial activity against Staphylococcus aureus CJ 200
[2] = tested on: Staphylococcus epidermidis; assay: Antibacterial activity against Staphylococcus epidermidis CK 5
Corynebacterium xerosis = assay: Antibacterial activity against Corynebacterium xerosis FF
Staphylococcus aureus [3] = assay: Antibacterial activity against Staphylococcus aureus CJ 251
Staphylococcus aureus [4] = assay: Antibacterial activity against Staphylococcus aureus CJ 288
Staphylococcus aureus [5] = assay: Antibacterial activity against Staphylococcus aureus CJ 234 R
Staphylococcus aureus [6] = assay: Antibacterial activity against Staphylococcus aureus CJ 247

Row | MIC (Staphylococcus aureus [1]) | MIC [2] | MIC (Corynebacterium xerosis) | MIC (Staphylococcus aureus [3]) | MIC (Staphylococcus aureus [4]) | MIC (Staphylococcus aureus [5]) | MIC (Staphylococcus aureus [6]) | Compound
1 | 1 µg/mL (≈ 1.65 µM) | 4 µg/mL (≈ 6.58 µM) | 0.016 µg/mL (≈ 0.0263 µM) | 1 µg/mL (≈ 1.65 µM) | 1 µg/mL (≈ 1.65 µM) | 1 µg/mL (≈ 1.65 µM) |  | CC(=O)O[C@H]1C[C@@]2(C)[C@@H](C[C@@H](O)[C@H]3[C@@]4(C)CC[C@@H](O)[C@@H](C)C4CC[C@@]32C)/C1=C(\CCCCc1ccc(N=[N+]=[N-])cc1)C(=O)O (stereo partly specified)
2 | 4 µg/mL (≈ 5.96 µM) | 1 µg/mL (≈ 1.49 µM) | 0.016 µg/mL (≈ 0.0238 µM) | 1 µg/mL (≈ 1.49 µM) | 1 µg/mL (≈ 1.49 µM) | 1 µg/mL (≈ 1.49 µM) | 1 µg/mL (≈ 1.49 µM) | CC(=O)O[C@H]1C[C@@]2(C)[C@@H](C[C@@H](O)[C@H]3[C@@]4(C)CC[C@@H](O)[C@@H](C)C4CC[C@@]32C)/C1=C(\CCCCc1ccc(C(=O)c2ccccc2)cc1)C(=O)O (stereo partly specified)
3 | 2 µg/mL (≈ 2.96 µM) | 1 µg/mL (≈ 1.48 µM) | 0.063 µg/mL (≈ 0.0934 µM) | 1 µg/mL (≈ 1.48 µM) | 1 µg/mL (≈ 1.48 µM) | 1 µg/mL (≈ 1.48 µM) |  | CC(=O)O[C@H]1C[C@@]2(C)[C@@H](C[C@@H](O)[C@H]3[C@@]4(C)CC[C@@H](O)[C@@H](C)C4CC[C@@]32C)/C1=C(\CCCCc1ccc(C2(C(F)(F)F)N=N2)cc1)C(=O)O (stereo partly specified)
4 | 0.063 µg/mL (≈ 0.122 µM) | 0.063 µg/mL (≈ 0.122 µM) | 0.016 µg/mL (≈ 0.031 µM) | < 0.063 µg/mL | < 0.063 µg/mL | < 0.063 µg/mL | 0.063 µg/mL (≈ 0.122 µM) | CC(=O)O[C@H]1C[C@@]2(C)[C@@H](C[C@@H](O)[C@H]3[C@@]4(C)CC[C@@H](O)[C@@H](C)[C@@H]4CC[C@@]32C)/C1=C(\CCC=C(C)C)C(=O)O [FUSIDIC ACID]
